Assay results as given in patent publication US9750719B2, “Tetrazole compounds as calcium channel blockers” (CONVERGENCE PHARMACEUTICALS LIMITED, priority 2010, dated 2017).
Structures can show the parent of a compound that is named as a salt.

Target: T1, human Cav2.2 α (α1B) subunit, along with the human β3 and α2δ1 auxiliary subunits (Homo sapiens, UniProt Q00975)
T1 construct: expressed in transfected cells
Assay: hCav2.2 assay, IonWorks planar array electrophysiology in stable HEK293 cell line
Assay type: cell-based
Settings: inhibition by 50% of current elicited by the 1st depolarising pulse; HEK293 cells; read-out: tonic pIC50 (converted)
Description: Compounds as defined in the first or second aspect may be tested for in vitro biological activity in the hCav2.2 assay in accordance with the following studies:
Stable cell lines expressing the human Cav2.2 α (α1B) subunit, along with the human β3 and α2δ1 auxiliary subunits were created following sequential transfection and selection of human embryonic kidney (HEK293) cells. HEK293 cells were cultured in Dulbecco's modified Eagles media/F12 media (Invitrogen, Cat #041-95750V) containing 10% fetal bovine serum, with added L-glutamine (2 mM; Invitrogen, Cat #25030-024) and non-essential amino acids (5%; Invitrogen, Cat #11140-035). Initially HEK293 cells were transfected with two plasmid vectors for expression of the hCav2.2 α subunit (pCIN5-hCav2.2 which carries a neomycin resistance marker) and the hCav β3 subunit (pCIH-hCav β3 which carries a hygromycin resistance marker). Clonal cell lines were isolated following selection in media supplemented with 0.4 mg ml^−1 Geneticin G418 (Invitrogen, Cat #10131-027) and 0.1 mg ml^−1 hygromycin (Invitrogen, Cat #10687-010). These clonal cell lines were assessed for Cav2.2 α/β3-mediated current expression using the IonWorks planar array electrophysiology technology (described below). A clonal line was identified that gave a reasonable level of functional Cav2.2 α/β3 current expression. This cell line was transfected with a plasmid vector for expression of the human α2δ1 subunit (pCIP-α2δ1 which carries a puromycin resistance marker) and clonal cell lines isolated following selection in media containing 0.62 μg ml^−1 puromycin (Sigma, Cat #P-7255), in addition to 0.4 mg ml^−1 Geneticin G418 and 0.1 mg ml^−1 hygromycin. Several cell lines were identified that gave robust levels of Cav2.2 α/β3/α2δ1-mediated current expression and one of these was selected for compound profiling. Expression of all three subunits within this cell line was continuously maintained by the inclusion of G418 (0.4 mg ml^−1), hygromycin (0.1 mg ml^−1) and puromycin (0.62 μg ml^−1). Cells were maintained at 37° C. in a humidified environment containing 5% CO2 in air. Cells were liberated from the T175 culture flasks for passage and harvesting using TrpLE (Invitrogen, Cat #12604-013).
Cells were grown to 30-60% confluence in T175 flasks and maintained at 30° C. for 24 hrs prior to recording. Cells were lifted by removing the growth media, washing with Ca^2+ free PBS (Invitrogen, Cat #14190-094) and incubating with 3 ml of warmed (37° C.) TrpLE (Invitrogen, Cat #12604-013) for 6 minutes. Lifted cells were suspended in 10 ml of extracellular buffer. Cell suspension was then placed into a 15 ml tube and centrifuged for 2 minutes at 700 rpm. After centrifugation, the supernatant was removed and the cell pellet was resuspended in 4.5 ml of extracellular solution.
Currents were recorded at room temperature (21-23° C.) using the IonWorks planar array electrophysiology technology (Molecular Devices Corp.). Stimulation protocols and data acquisition were carried out using a microcomputer (Dell Pentium 4). In order to determine planar electrode hole resistances (Rp), a 10 mV, 160 ms potential difference was applied across each hole. These measurements were performed before cell addition. After cell addition a seal test was performed prior to antibiotic (amphotericin) circulation to achieve intracellular access. Leak subtraction was conducted in all experiments by applying a 160 ms hyperpolarizing (10 mV) prepulse 200 ms before the test pulses to measure leak conductance. Test pulses stepping from the holding potential (VH) of −90 mV to +10 mV were applied for 20 ms and repeated 10 times at a frequency of 10 Hz. In all experiments, the test pulse protocol was performed in the absence (pre-read) and presence (post-read) of a compound. Pre- and post-reads were separated by a compound addition followed by a 3-3.5 min incubation. […]

T1 sequence (Q00975 whole entry): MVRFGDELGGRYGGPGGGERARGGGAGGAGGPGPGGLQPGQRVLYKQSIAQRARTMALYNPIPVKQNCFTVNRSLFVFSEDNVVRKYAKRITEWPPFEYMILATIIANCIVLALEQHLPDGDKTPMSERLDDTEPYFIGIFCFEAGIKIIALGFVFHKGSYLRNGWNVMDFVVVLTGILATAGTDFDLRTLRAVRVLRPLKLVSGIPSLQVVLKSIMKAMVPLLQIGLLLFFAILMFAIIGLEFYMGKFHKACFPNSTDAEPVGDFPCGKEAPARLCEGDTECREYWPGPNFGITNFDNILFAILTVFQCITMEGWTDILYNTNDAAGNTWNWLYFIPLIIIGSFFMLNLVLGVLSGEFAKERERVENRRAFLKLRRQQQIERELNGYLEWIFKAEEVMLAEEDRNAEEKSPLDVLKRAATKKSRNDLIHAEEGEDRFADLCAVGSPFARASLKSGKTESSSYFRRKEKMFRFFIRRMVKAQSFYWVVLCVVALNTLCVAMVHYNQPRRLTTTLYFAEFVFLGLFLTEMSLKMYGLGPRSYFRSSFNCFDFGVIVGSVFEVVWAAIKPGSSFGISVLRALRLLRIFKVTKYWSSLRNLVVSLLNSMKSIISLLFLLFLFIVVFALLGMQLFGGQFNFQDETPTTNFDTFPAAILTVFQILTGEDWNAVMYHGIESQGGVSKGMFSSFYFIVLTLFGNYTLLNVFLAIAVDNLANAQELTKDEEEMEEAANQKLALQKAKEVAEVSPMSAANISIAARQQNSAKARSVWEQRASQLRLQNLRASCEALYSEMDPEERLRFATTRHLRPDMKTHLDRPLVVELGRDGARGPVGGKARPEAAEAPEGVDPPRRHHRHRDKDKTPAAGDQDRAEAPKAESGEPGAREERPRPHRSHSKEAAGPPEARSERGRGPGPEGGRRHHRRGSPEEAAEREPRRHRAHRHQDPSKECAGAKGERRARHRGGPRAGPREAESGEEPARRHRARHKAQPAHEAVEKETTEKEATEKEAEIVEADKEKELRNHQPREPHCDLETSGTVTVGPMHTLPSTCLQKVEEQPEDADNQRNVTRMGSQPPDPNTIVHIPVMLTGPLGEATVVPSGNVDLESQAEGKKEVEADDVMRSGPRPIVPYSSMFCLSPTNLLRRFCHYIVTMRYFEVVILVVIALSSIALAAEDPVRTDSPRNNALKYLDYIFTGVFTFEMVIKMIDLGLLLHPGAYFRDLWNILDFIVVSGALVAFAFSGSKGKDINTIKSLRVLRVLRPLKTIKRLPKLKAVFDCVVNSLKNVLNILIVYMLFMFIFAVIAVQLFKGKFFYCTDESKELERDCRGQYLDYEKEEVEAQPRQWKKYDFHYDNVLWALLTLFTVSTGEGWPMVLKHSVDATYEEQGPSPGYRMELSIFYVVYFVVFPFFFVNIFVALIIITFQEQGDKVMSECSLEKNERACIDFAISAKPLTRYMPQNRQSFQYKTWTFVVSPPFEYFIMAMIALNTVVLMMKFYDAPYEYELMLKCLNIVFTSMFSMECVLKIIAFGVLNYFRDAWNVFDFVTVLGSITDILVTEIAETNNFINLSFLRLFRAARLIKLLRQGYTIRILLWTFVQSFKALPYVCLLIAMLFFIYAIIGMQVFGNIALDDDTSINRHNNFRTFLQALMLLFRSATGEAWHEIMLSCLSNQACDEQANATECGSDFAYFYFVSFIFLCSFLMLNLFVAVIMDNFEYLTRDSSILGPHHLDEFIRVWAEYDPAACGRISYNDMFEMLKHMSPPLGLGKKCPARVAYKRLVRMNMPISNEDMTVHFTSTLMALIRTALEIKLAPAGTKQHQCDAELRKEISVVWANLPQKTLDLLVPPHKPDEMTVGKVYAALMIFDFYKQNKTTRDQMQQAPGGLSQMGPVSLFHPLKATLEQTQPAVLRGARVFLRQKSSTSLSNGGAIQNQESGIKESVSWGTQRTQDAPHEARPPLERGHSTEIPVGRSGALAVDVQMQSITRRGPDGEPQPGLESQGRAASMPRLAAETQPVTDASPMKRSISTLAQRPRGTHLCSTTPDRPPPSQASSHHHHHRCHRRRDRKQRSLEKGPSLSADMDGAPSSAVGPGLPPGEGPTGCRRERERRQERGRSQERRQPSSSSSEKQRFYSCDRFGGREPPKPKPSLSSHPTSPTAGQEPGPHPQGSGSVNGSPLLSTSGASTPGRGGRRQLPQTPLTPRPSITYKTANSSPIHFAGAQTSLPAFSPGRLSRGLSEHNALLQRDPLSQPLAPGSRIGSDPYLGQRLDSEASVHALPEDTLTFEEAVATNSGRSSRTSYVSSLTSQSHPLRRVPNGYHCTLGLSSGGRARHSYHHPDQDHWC
T1 sequence (P54284 whole entry partner): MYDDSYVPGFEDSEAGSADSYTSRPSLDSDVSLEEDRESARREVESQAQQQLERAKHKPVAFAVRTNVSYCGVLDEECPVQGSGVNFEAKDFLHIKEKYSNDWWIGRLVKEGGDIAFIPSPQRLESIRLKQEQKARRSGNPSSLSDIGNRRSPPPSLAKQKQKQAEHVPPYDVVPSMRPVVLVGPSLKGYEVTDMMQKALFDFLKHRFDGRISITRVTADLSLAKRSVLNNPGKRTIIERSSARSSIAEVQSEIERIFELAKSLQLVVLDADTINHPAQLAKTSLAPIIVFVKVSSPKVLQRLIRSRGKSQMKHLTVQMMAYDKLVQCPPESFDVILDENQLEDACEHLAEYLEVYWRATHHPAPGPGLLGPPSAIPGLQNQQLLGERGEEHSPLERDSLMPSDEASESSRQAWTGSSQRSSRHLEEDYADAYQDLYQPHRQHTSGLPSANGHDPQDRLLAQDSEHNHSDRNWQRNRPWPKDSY
T1 sequence (P54289 25-946 partner limits assumed): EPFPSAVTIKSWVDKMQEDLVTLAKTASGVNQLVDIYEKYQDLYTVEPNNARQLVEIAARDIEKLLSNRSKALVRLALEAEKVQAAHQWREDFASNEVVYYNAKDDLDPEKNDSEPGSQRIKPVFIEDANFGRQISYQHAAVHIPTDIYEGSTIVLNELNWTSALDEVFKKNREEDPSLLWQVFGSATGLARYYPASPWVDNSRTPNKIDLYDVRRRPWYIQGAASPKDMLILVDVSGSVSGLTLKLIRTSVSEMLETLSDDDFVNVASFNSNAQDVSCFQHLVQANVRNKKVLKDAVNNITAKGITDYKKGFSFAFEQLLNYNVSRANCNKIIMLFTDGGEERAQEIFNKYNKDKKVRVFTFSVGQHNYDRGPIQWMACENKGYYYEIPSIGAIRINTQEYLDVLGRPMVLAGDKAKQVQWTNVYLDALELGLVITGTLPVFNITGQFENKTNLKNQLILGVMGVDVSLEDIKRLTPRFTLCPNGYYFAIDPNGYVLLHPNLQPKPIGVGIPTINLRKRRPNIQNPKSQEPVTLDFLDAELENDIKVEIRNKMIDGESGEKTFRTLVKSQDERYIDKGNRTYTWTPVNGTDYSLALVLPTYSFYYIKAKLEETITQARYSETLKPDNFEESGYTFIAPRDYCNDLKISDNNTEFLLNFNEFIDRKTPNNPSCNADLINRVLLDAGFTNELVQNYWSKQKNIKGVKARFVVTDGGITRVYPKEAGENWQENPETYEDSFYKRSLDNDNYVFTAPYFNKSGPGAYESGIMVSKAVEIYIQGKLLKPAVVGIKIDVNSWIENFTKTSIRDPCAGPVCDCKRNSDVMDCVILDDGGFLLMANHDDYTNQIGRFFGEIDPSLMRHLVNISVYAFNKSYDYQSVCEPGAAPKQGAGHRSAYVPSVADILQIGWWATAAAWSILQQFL
T1 sequence (P54289 947-1103 partner limits assumed): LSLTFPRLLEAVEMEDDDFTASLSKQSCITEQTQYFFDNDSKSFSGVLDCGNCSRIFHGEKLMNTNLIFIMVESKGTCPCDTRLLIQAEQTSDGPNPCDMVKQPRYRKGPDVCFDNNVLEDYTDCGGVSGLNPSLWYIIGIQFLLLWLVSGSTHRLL

SMILES	IC50
FS(F)(F)(F)(F)c1ccc(-n2nnnc2CN2C[C@@H]3C[C@H]2CO3)cc1 [Compound 127, (1S,4S)-5-({1-[4-(pentafluoro-λ^6-sulfanyl)phenyl]-1H-tetrazol-5-yl}methyl)-2-oxa-5-azabicyclo[2.2.1]heptane]	≤ 31.6 µM
CS(=O)(=O)N1CCN(Cc2nnnn2-c2ccc(C(F)(F)F)cc2)CC1 [Compound 71, 1-(Methylsulfonyl)-4-({1-[4-(trifluoromethyl)phenyl]-1H-tetrazol-5-yl}methyl)piperazine]	≤ 3.16 µM
FC(F)(F)c1cccc(-n2nnnc2CN2CCOCC2)c1 [Compound 19, 4-({1-[3-(Trifluoromethyl)phenyl]-1H-tetrazol-5-yl}methyl)morpholine]	≤ 31.6 µM
Cc1c(-n2nnnc2CN2C[C@@H]3C[C@H]2CO3)ccc(C#N)c1C(F)(F)F [Compound 129, 3-methyl-4-{5-[(1S,4S)-2-oxa-5-azabicyclo[2.2.1]hept-5-ylmethyl]-1H-tetrazol-1-yl}-2-(trifluoromethyl)bbenzonitrile hydrochloride]	≤ 31.6 µM
N#Cc1ccc(-n2nnnc2CN2CCOCC2)cc1C(F)(F)F [Compound 34, 4-[5-(4-Morpholinylmethyl)-1H-tetrazol-1-yl]-2-(trifluoromethyl)benzonitrile hydrochloride]	≤ 31.6 µM
O=S1(=O)CCC2CN(Cc3nnnn3-c3ccc(C(F)(F)F)cc3)CCN21 (stereo not shown) [Compound 78, 5-({1-[4-(Trifluoromethyl)phenyl]-1H-tetrazol-5-yl}methyl)hexahydro-2H-isothiazole[2,3-a]pyrazine 1,1-dioxide]	≤ 31.6 µM
CCN1CCN(Cc2nnnn2-c2cccc(C(F)(F)F)c2)[C@H](C)C1 [Compound 92, (2R)-4-Ethyl-2-methyl,-1-({1-[3-(trifluoromethyl)phenyl]-1H-tetrazol-5-yl}methyl)piperazine hydrochloride]	≤ 31.6 µM
C[C@@H]1CN(Cc2nnnn2-c2ccc(Br)cc2Cl)C[C@H](C)O1 [Compound 57, cis-4-{[1-(4-Bromo-2-chlorophenyl)-1H-tetrazol-5-yl]methyl}-2,6-dimethylmorpholine hydrochloride]	≤ 31.6 µM
C[C@@H]1COC[C@H](C)N1Cc1nnnn1-c1cccc(C(F)(F)F)c1 [Compound 64, (cis)-3,5-dimethyl-4-({1-[3-(Trifluoromethyl)phenyl]-1H-tetrazol-5-yl}methyl)morpholine hydrochloride]	≤ 31.6 µM
FC(F)(F)c1cc(-n2nnnc2CN2C[C@@H]3C[C@H]2CO3)ccc1Cl [Compound 110, (1S,4S)-5-({1-[4-chloro-3-(trifluoromethyl)phenyl]-1H-tetrazol-5-yl}methyl)-2-oxa-5-azabicyclo[2.2.1]heptane hydrochloride]	≤ 10 µM
CN1CCN(Cc2nnnn2-c2cccc(C(F)(F)F)c2)CC1(C)C [Compound 45, 1,2,2-Trimethyl-4-({1-[3-(trifluoromethyl)phenyl]-1H-tetrazol-5-yl}methyl)piperazine hydrochloride]	≤ 31.6 µM
FC(F)(F)c1cccc(-n2nnnc2CNC2CCCCC2)c1 [Compound 65, N-({1-[3-(Trifluoromethyl)phenyl]-1H-tetrazol-5-yl}methyl)cyclohexanamine hydrochloride]	≤ 31.6 µM
N#CC1CCN(Cc2nnnn2-c2cccc(C(F)(F)F)c2)C1 (stereo not shown) [Compound 24, 1-({1-[3-(Trifluoromethyl)phenyl]-1H-tetrazol-5-yl}methyl)-3-pyrrolidinecarbonitrile hydrochloride]	≤ 31.6 µM
Clc1ccc(-n2nnnc2CN2CCOCC2)cc1Cl [Compound 21, 4-{[1-(3,4-Dichlorophenyl)-1H-tetrazol-5-yl]methyl}morpholine]	≤ 10 µM
C[C@@H]1COCCN1Cc1nnnn1-c1ccc(C(F)(F)F)cc1 [Compound 28, (3R)-3-Methyl-4-({1-[4-(trifluoromethyl)phenyl]-1H-tetrazol-5-yl}methyl)morpholine hydrochloride]	≤ 3.16 µM
CCS(=O)(=O)N1CCN(Cc2nnnn2-c2cccc(C(F)(F)F)c2)CC1 [Compound 48, 1-(Ethylsulfonyl)-4-({1-[3-(trifluoromethyl)phenyl]-1H-tetrazol-5-yl}methyl)piperazine]	≤ 3.16 µM
C[C@@H]1CN(Cc2nnnn2-c2ccc(Cl)cc2)C[C@H](C)O1 [Compound 13, (cis)-4-{[1-(4-Chlorophenyl)-1H-tetrazol-5-yl]methyl}-2,6-dimethylmorpholine]	≤ 31.6 µM
N#Cc1ccc(-n2nnnc2CN2CCC[C@@H]2C(F)(F)F)cc1 [Compound 73, 4-(5-{[(2R)-2-(Trifluoromethyl)-1-pyrrolidinyl]methyl}-1H-tetrazol-1-yl)benzonitrile]	≤ 31.6 µM
CCS(=O)(=O)N1CCN(Cc2nnnn2-c2ccc(C#N)c(C(F)(F)F)c2)CC1 [Compound 121, 4-(5-{[4-(ethylsulfonyl)-1-piperazinyl]methyl}-1H-tetrazol-1-yl)-2-(trifluoromethyl)benzonitrile]	≤ 3.16 µM
C[C@@H]1COCCN1Cc1nnnn1-c1cccc(C(F)(F)F)c1 [Compound 25, (3R)-3-Methyl-4-({1-[3-(trifluoromethyl)phenyl]-1H-tetrazol-5-yl}methyl)morpholine hydrochloride]	≤ 3.16 µM
CC(C)S(=O)(=O)N1CCN(Cc2nnnn2-c2ccc(C#N)c(C(F)(F)F)c2)CC1 [Compound 122, 4-[5-({4-[(1-methylethyl)sulfonyl]-1-piperazinyl}methyl)-1H-tetrazol-1-yl]-2-(trifluoromethyl)benzonitrile]	≤ 3.16 µM
CCC(=O)N1CCN(Cc2nnnn2-c2ccc(C#N)c(C(F)(F)F)c2)CC1 [Compound 145, 4-{5-[(4-propanoyl-1-piperazinyl)methyl]-1H-tetrazol-1-yl}-2-(trifluoromethyl)benzonitrile]	≤ 3.16 µM
CCCS(=O)(=O)N1CCN(Cc2nnnn2-c2ccc(Cl)cc2)CC1 [Compound 23, 1-{[1-(4-Chlorophenyl)-1H-tetrazol-5-yl]methyl}-4-(propylsulfonyl)piperazine]	≤ 31.6 µM
CCCS(=O)(=O)N1CCN(Cc2nnnn2-c2ccc(C#N)c(C(F)(F)F)c2)CC1 [Compound 106, 4-(5-{[4-(Propylsulfonyl)-1-piperazinyl]methyl}-1H-tetrazol-1-yl)-2-(trifluoromethyl)benzonitrile]	≤ 3.16 µM
FC(F)(F)c1ccc(-n2nnnc2CN2CCN3CCCC3C2)cc1 (stereo not shown) [Compound 70, 2-({1-[4-(Trifluoromethyl)phenyl]-1H-tetrazol-5-yl}methyl)octahydropyrrolo[1,2-a]pyrazine di-hydrochloride]	≤ 31.6 µM
